# Data taken from patent publication US12435044B2, “Pyridazinone herbicides and pyridazinone intermediates used to prepare a herbicide” (FMC Corporation, priority 2018, dated 2025).
# Experiments:
# Assay type in all cases: in vivo
# [1] = test system: common ragweed (AMBEL; Ambrosia artemisiifolia); assay: Test K pre-/postemergence, mixtures of Cpd. No. 20 with metribuzin or rimsulfuron
# Source text: (§1) This test evaluated the effect of mixtures of Cpd. No. 20 with metribuzin or rimsulfuron on several plant species. Seeds of plant species selected from corn (ZEAMD; Zea mays, cv. ‘Pioneer 1184’), soybean (GLXMA; Glycine max, cv. Pioneer 35T58), giant foxtail (SETFA; Setaria faberi), palmer amaranth (AMAPA; Amaranthus palmeri), common waterhemp (AMATU; Amaranthus rudis), mare's tail (ERICA; Conyza canadensis), and common ragweed (AMBEL; Ambrosia artemisiifolia) were planted in pots containing Tama Silt Loam soil and treated preemergence with a directed soil spray using test chemicals formulated in a non-phytotoxic solvent mixture which included a surfactant.
# (§2) At the same time, plants selected from these crop and weed species were planted in pots containing Redi-Earth® planting medium (Scotts Company, 14111 Scottslawn Road, Marysville, Ohio 43041) comprising spaghnum peat moss, vermiculite, wetting agent and starter nutrients and treated postemergence with test chemicals formulated in the same manner. Plants ranged in height from 2 to 10 cm and were in the one- to two-leaf stage for the postemergence treatment. Treated plants and untreated controls were maintained in a greenhouse for approximately 14-21 d, after which time all treated plants were compared to untreated controls and visually evaluated for injury. Plant response ratings, summarized in Tables K1 to K4, are based on a 0 to 100 scale where 0 is no effect and 100 is complete control. A dash (-) response means no test result. Test results are presented as a mean of 4 reps.
# [2] = test system: common waterhemp (AMATU; Amaranthus rudis); assay: as above
# Source text: as §1, §2
# [3] = test system: corn (ZEAMD; Zea mays, cv. ‘Pioneer 1184’); assay: as above
# Source text: as §1, §2
# [4] = test system: giant foxtail (SETFA; Setaria faberi); assay: as above
# Source text: as §1, §2
# [5] = test system: mare's tail (ERICA; Conyza canadensis); assay: as above
# Source text: as §1, §2
# [6] = test system: soybean (GLXMA; Glycine max, cv. Pioneer 35T58); assay: as above
# Source text: as §1, §2
# [7] = test system: corn (ZEAMD; Zea mays, cv. ‘Pioneer 1184’); assay: Test M postemergence, mixtures of Cpd. No. 20 with isoxadifen-ethyl, cloquintocet-mexyl or Mefenpyr-diethyl; settings: approx. 14 d
# Source text: (§3) This test evaluated the effect of mixtures of Cpd. No. 20 with isoxadifen-ethyl, or cloquintocet-mexyl, or Mefenpyr-diethyl on several plant species. Seeds of plant species selected from corn (ZEAMD; Zea mays, cv. ‘Pioneer 1184’), soybean (GLXMA; Glycine max, cv. Pioneer 35T58), winter wheat (TRZAW; Triticum aetivum, cv. Arezzo), winter barley (HORVW; Hordeum vulgare, cv. Boone), rice (ORYSS; Oryza sativa, cv. M202), and giant foxtail (SETFA; Setaria faberi) were planted in pots containing Redi-Earth® planting medium (Scotts Company, 14111 Scottslawn Road, Marysville, Ohio 43041) comprising spaghnum peat moss, vermiculite, wetting agent and starter nutrients and treated postemergence using test chemicals formulated in a non-phytotoxic solvent mixture which included a surfactant. Plants ranged in height from 7 to 10 cm and were in the one- to two-leaf stage for the postemergence treatment. Treated plants and untreated controls were maintained in a greenhouse for approximately 14 d, after which time all treated plants were compared to untreated controls and visually evaluated for injury. Plant response ratings, summarized in Tables M1 to M3, are based on a 0 to 100 scale where 0 is no effect and 100 is complete control. A dash (-) response means no test result. Test results are presented as a mean of 3 reps.
# [8] = test system: giant foxtail (SETFA; Setaria faberi); assay: as above; settings: approx. 14 d
# Source text: as §3
# [9] = test system: rice (ORYSS; Oryza sativa, cv. M202); assay: as above; settings: approx. 14 d
# Source text: as §3
# [10] = test system: soybean (GLXMA; Glycine max, cv. Pioneer 35T58); assay: as above; settings: approx. 14 d
# Source text: as §3
# [11] = test system: winter barley (HORVW; Hordeum vulgare, cv. Boone); assay: as above; settings: approx. 14 d
# Source text: as §3
# [12] = test system: winter wheat (TRZAW; Triticum aetivum, cv. Arezzo); assay: as above; settings: approx. 14 d
# Source text: as §3
# [13] = Cpd. No. 20 alone 125 g a.i./ha
# [14] = Cpd. No. 20 alone 250 g a.i./ha
# [15] = Cpd. No. 20 alone 375 g a.i./ha
smiles,measurement,setting,value
"Cc1ccc2ccc(C)c(-c3c(O)c(Cl)nn(C)c3=O)c2c1 [Cpd. No. 20, 6-chloro-4-(2,7-dimethyl-1-naphthalenyl)-5-hydroxy-2-methyl-3(2H)-pyridazinone]","AMBEL plant response rating, 0 to 100 scale","[1]; postemergence, 8 g a.i./ha",82
same,"AMBEL plant response rating, 0 to 100 scale","[1]; postemergence, 16 g a.i./ha",82
same,"AMBEL plant response rating, 0 to 100 scale","[1]; postemergence, 31 g a.i./ha",92
same,"AMBEL plant response rating, 0 to 100 scale","[1]; postemergence, 62 g a.i./ha",97
same,"AMBEL plant response rating, 0 to 100 scale","[1]; preemergence, 8 g a.i./ha",0
same,"AMBEL plant response rating, 0 to 100 scale","[1]; preemergence, 16 g a.i./ha",26
same,"AMBEL plant response rating, 0 to 100 scale","[1]; preemergence, 31 g a.i./ha",55
same,"AMBEL plant response rating, 0 to 100 scale","[1]; preemergence, 62 g a.i./ha",100
same,"AMATU plant response rating, 0 to 100 scale","[2]; postemergence, 8 g a.i./ha",50
same,"AMATU plant response rating, 0 to 100 scale","[2]; postemergence, 16 g a.i./ha",57
same,"AMATU plant response rating, 0 to 100 scale","[2]; postemergence, 31 g a.i./ha",68
same,"AMATU plant response rating, 0 to 100 scale","[2]; postemergence, 62 g a.i./ha",62
same,"AMATU plant response rating, 0 to 100 scale","[2]; preemergence, 8 g a.i./ha",0
same,"AMATU plant response rating, 0 to 100 scale","[2]; preemergence, 16 g a.i./ha",0
same,"AMATU plant response rating, 0 to 100 scale","[2]; preemergence, 31 g a.i./ha",20
same,"AMATU plant response rating, 0 to 100 scale","[2]; preemergence, 62 g a.i./ha",30
same,"ZEAMD plant response rating, 0 to 100 scale","[3]; postemergence, 8 g a.i./ha",0
same,"ZEAMD plant response rating, 0 to 100 scale","[3]; postemergence, 16 g a.i./ha",0
same,"ZEAMD plant response rating, 0 to 100 scale","[3]; postemergence, 31 g a.i./ha",0
same,"ZEAMD plant response rating, 0 to 100 scale","[3]; postemergence, 62 g a.i./ha",0
same,"ZEAMD plant response rating, 0 to 100 scale","[3]; preemergence, 8 g a.i./ha",0
same,"ZEAMD plant response rating, 0 to 100 scale","[3]; preemergence, 16 g a.i./ha",0
same,"ZEAMD plant response rating, 0 to 100 scale","[3]; preemergence, 31 g a.i./ha",0
same,"ZEAMD plant response rating, 0 to 100 scale","[3]; preemergence, 62 g a.i./ha",0
same,"SETFA plant response rating, 0 to 100 scale","[4]; postemergence, 8 g a.i./ha",37
same,"SETFA plant response rating, 0 to 100 scale","[4]; postemergence, 16 g a.i./ha",62
same,"SETFA plant response rating, 0 to 100 scale","[4]; postemergence, 31 g a.i./ha",77
same,"SETFA plant response rating, 0 to 100 scale","[4]; postemergence, 62 g a.i./ha",92
same,"SETFA plant response rating, 0 to 100 scale","[4]; preemergence, 8 g a.i./ha",6
same,"SETFA plant response rating, 0 to 100 scale","[4]; preemergence, 16 g a.i./ha",50
same,"SETFA plant response rating, 0 to 100 scale","[4]; preemergence, 31 g a.i./ha",84
same,"SETFA plant response rating, 0 to 100 scale","[4]; preemergence, 62 g a.i./ha",100
same,"ERICA plant response rating, 0 to 100 scale","[5]; postemergence, 8 g a.i./ha",77
same,"ERICA plant response rating, 0 to 100 scale","[5]; postemergence, 16 g a.i./ha",85
same,"ERICA plant response rating, 0 to 100 scale","[5]; postemergence, 31 g a.i./ha",92
same,"ERICA plant response rating, 0 to 100 scale","[5]; postemergence, 62 g a.i./ha",93
same,"ERICA plant response rating, 0 to 100 scale","[5]; preemergence, 8 g a.i./ha",89
same,"ERICA plant response rating, 0 to 100 scale","[5]; preemergence, 16 g a.i./ha",100
same,"ERICA plant response rating, 0 to 100 scale","[5]; preemergence, 31 g a.i./ha",100
same,"ERICA plant response rating, 0 to 100 scale","[5]; preemergence, 62 g a.i./ha",100
same,"GLXMA plant response rating, 0 to 100 scale","[6]; postemergence, 8 g a.i./ha",0
same,"GLXMA plant response rating, 0 to 100 scale","[6]; postemergence, 16 g a.i./ha",0
same,"GLXMA plant response rating, 0 to 100 scale","[6]; postemergence, 31 g a.i./ha",8
same,"GLXMA plant response rating, 0 to 100 scale","[6]; postemergence, 62 g a.i./ha",13
same,"GLXMA plant response rating, 0 to 100 scale","[6]; preemergence, 8 g a.i./ha",0
same,"GLXMA plant response rating, 0 to 100 scale","[6]; preemergence, 16 g a.i./ha",0
same,"GLXMA plant response rating, 0 to 100 scale","[6]; preemergence, 31 g a.i./ha",0
same,"GLXMA plant response rating, 0 to 100 scale","[6]; preemergence, 62 g a.i./ha",0
same,Plant response rating (0 to 100 scale) ZEAMD,[7]; Cpd. No. 20 alone 62 g a.i./ha,0
same,Plant response rating (0 to 100 scale) ZEAMD,[7]; [13],17
same,Plant response rating (0 to 100 scale) ZEAMD,[7]; [14],28
same,Plant response rating (0 to 100 scale) ZEAMD,[7]; [15],33
same,Plant response rating (0 to 100 scale) SETFA,[8]; Cpd. No. 20 alone 62 g a.i./ha,96
same,Plant response rating (0 to 100 scale) SETFA,[8]; [13],99
same,Plant response rating (0 to 100 scale) SETFA,[8]; [14],100
same,Plant response rating (0 to 100 scale) SETFA,[8]; [15],100
same,Plant response rating (0 to 100 scale) ORYSS,[9]; Cpd. No. 20 alone 62 g a.i./ha,20
same,Plant response rating (0 to 100 scale) ORYSS,[9]; [13],35
same,Plant response rating (0 to 100 scale) ORYSS,[9]; [14],40
same,Plant response rating (0 to 100 scale) ORYSS,[9]; [15],40
same,Plant response rating (0 to 100 scale) GLXMA,[10]; Cpd. No. 20 alone 62 g a.i./ha,15
same,Plant response rating (0 to 100 scale) GLXMA,[10]; [13],22
same,Plant response rating (0 to 100 scale) GLXMA,[10]; [14],30
same,Plant response rating (0 to 100 scale) GLXMA,[10]; [15],35
same,Plant response rating (0 to 100 scale) HORVW,[11]; Cpd. No. 20 alone 62 g a.i./ha,0
same,Plant response rating (0 to 100 scale) HORVW,[11]; [13],10
same,Plant response rating (0 to 100 scale) HORVW,[11]; [14],15
same,Plant response rating (0 to 100 scale) HORVW,[11]; [15],20
same,Plant response rating (0 to 100 scale) TRZAW,[12]; Cpd. No. 20 alone 62 g a.i./ha,0
same,Plant response rating (0 to 100 scale) TRZAW,[12]; [13],8
same,Plant response rating (0 to 100 scale) TRZAW,[12]; [14],22
same,Plant response rating (0 to 100 scale) TRZAW,[12]; [15],35
